Results reported in patent US20230374034A1, “NOVEL BICYCLIC COMPOUNDS” (PRISM BIOLAB CO., LTD., priority 2020, published 2023).

Each compound was assayed on NICD (Notch intracellular domain) CSL-bla reporter in HeLa cells (assay: Notch assay (CellSensor T-REx NICD CSL-bla HeLa beta-lactamase reporter; Method 1 / Method 2)). Settings: Homo sapiens, 10 μM compound, Method 1 (10× compound prepared in assay medium, added to plated cells), read-out: inhibiton (%) at 10 μM.
Format: cell-based
From the text: We used the CellSensor T-REx™ NICD CSL-bla HeLa cell line, which was engineered by lentiviral transduction of HeLa cells with a Notch response element driving beta-lactamase reporter gene expression (CSL-bla) along with DOX (doxycycline)-inducible NICD (Notch intracellular domain) constructs. Addition of DOX to these cells allows for regulated NICD transcription factor expression and subsequent beta-lactamase expression.
Specifically, the following protocol was used.
NOTCH ASSAY PROTOCOL (Method 2)
• 1. Add 40 nL/well of working concentration of 1000× compound to 384-well assay plate with Echo. • 2. Plate Cells: 35 μl/well of HeLa/T-REx™ NICD CSL-bla cells at 10^3 cells/well complete medium into 384-well plate. • 3. Add 5 μl 8× Doxycycline in Assay Medium to the treated wells, and 5 μl Assay Medium to the Untreated and cell free control wells. • 4. Incubate the assay plate in a humidified 37° C./5% CO2 incubator for 16-20 hours. • 5. Preparation of 6× LiveBLAzer™-FRET B/G Substrate (CCF4-AM) Mixture according to the manual and cell loading should be done in the absence of direct strong lighting. • 6. Remove assay plate from the humidified 37° C./5% CO2 incubator. Add 8 μl of 6× Substrate Mixture from Step 5 to each well. Cover the plate to protect it from light and evaporation. Incubate at room temperature for 4 hours. • 7. Reading an Assay Plate using the following filter selections:
• 8. Data analysis: Use the assay plate layout to identify the location of the Cell-free wells. These control wells are used for background subtraction. Determine the average emission from the Cell-free wells at both 460 nm (Average Blue Background) and 530 nm(Average Green Background). Subtract the Average Blue Background (data collected at 460 nm) from all of the blue emission data. Subtract the Average Green background (data collected at 530 nm) from all of the green emission data. Calculate the Blue/Green Emission Ratio for each well, by dividing the background-subtracted blue emission values by the background-subtracted green emission values.
Instead of Step 1 to Step 3, the following Step a to Step d can also be performed. The subsequent steps are the same as Method 2, after Step 4 (Method 1). • a. Plate Cells: 32 μL/well of HeLa/T-REx™ NICD CSL-bla cells at 10^3 cells/well complete medium into 384-well plate. • b. Prepare 10× compounds in assay medium. • c. Add 4 μL compounds or 1% DMSO in assay medium to the cells. • d. Add 4 μL 10×Doxycycline in Assay Medium to the treated wells, and 4 μL Assay Medium to the Untreated and cell free control wells.
The results are shown in Table 13 (Table 13-1 to Table 13-2).

| SMILES | inhibition at 10 µM |
| --- | --- |
| CC(C)C[C@H]1ON(C(=O)OCc2cccc3ccccc23)C2CN(CCC(N)=O)C(=O)[C@H](CC3CCCCC3)N2C1=O (stereo partly drawn) [Compound I-13, (3R,6S)-naphthalen-1-ylmethyl 8-(3-amino-3-oxopropyl)-6-(cyclohexylmethyl)-3-isobutyl-4,7-dioxohexahydropyrazino[2,1-c][1,2,4]oxadiazine-1(6H)-carboxylate] | 55.5% |
| CCCC[C@H]1ON(C(=O)OCc2cccc3ccccc23)C2CN(C(C)C)C(=O)[C@H](Cc3ccc(O)cc3)N2C1=O (stereo partly drawn) [Compound I-12, (3R,6S)-naphthalen-1-ylmethyl 3-butyl-6-(4-hydroxybenzyl)-8-isopropyl-4,7-dioxohexahydropyrazino[2,1-c][1,2,4]oxadiazine-1(6H)-carboxylate] | 71% |
| CC(C)C[C@H]1ON(C(=O)OCc2cccc3ccccc23)C2CN(C(C)C)C(=O)[C@H](Cc3ccc(O)cc3)N2C1=O (stereo partly drawn) [Compound I-14, (3R,6S)-naphthalen-1-ylmethyl 6-(4-hydroxybenzyl)-3-isobutyl-8-isopropyl-4,7-dioxohexahydropyrazino[2,1-c][1,2,4]oxadiazine-1(6H)-carboxylate] | 64.8% |
| CC(C)N1CC2N(C(=O)OCc3cccc4ccccc34)O[C@H](Cc3ccccc3)C(=O)N2[C@@H](Cc2ccc(O)cc2)C1=O (stereo partly drawn) [Compound I-17, (3R,6S)-naphthalen-1-ylmethyl 3-benzyl-6-(4-hydroxybenzyl)-8-isopropyl-4,7-dioxohexahydropyrazino[2,1-c][1,2,4]oxadiazine-1(6H)-carboxylate] | 88% |

Same assay, conditions: Homo sapiens, 10 μM compound, Method 2 (40 nL of 1000× compound added to plate with Echo), read-out: inhibiton (%) at 10 μM

| SMILES | inhibition at 10 µM |
| --- | --- |
| CC(C)C[C@H]1ON(C(=O)OCC2CCCCC2)C2CN(CCc3ccccc3)C(=O)[C@H](CCCCN)N2C1=O (stereo partly drawn) [Compound I-30, (3R,6S)-cyclohexylmethyl 6-(4-aminobutyl)-3-isobutyl-4,7-dioxo-8-phenethylhexahydropyrazino [2,1-c][1,2,4]oxadiazine-1(6H)-carboxylate] | 117% |
| COC(=O)N1O[C@H](Cc2ccc(O)cc2)C(=O)N2C1CN(CCc1cccc3ccccc13)C(=O)[C@@H]2C (stereo partly drawn) [Compound I-43, (3R,6S)-methyl 3-(4-hydroxybenzyl)-6-methyl-8-(2-(naphthalen-1-yl)ethyl)-4,7-dioxohexahydropyrazino[2,1-c][1,2,4]oxadiazine-1(6H)-carboxylate] | 52.9% |
| CC[C@H](C)[C@H]1C(=O)N(CCc2cccc3ccccc23)CC2N(C(=O)OCCc3ccc(O)cc3)O[C@H](Cc3ccc(O)cc3)C(=O)N21 (stereo partly drawn) [Compound I-46, (3R,6S)-4-hydroxyphenethyl 6-((S)-sec-butyl)-3-(4-hydroxybenzyl)-8-(2-(naphthalen-1-yl)ethyl)-4,7-dioxohexahydropyrazino[2,1-c][1,2,4]oxadiazine-1(6H)-carboxylate] | 75.6% |
| C[C@H]1C(=O)N(CCC(c2ccccc2)c2ccccc2)CC2N(C(=O)OCC3CCCCC3)O[C@H](CCCNC(=N)N)C(=O)N21 (stereo partly drawn) [Compound I-53, (3R,6S)-cyclohexylmethyl 8-(3,3-diphenylpropyl)-3-(3-guanidinopropyl)-6-methyl-4,7-dioxohexahydropyrazino[2,1-c][1,2,4]oxadiazine-1(6H)-carboxylate] | 53.6% |
| NC(=O)C[C@H]1C(=O)N(CCc2ccccc2)CC2N(C(=O)OCC3CCCCC3)O[C@H](Cc3ccc(O)cc3)C(=O)N21 (stereo partly drawn) [Compound I-39, (3R,6S)-cyclohexylmethyl 6-(2-amino-2-oxoethyl)-3-(4-hydroxybenzyl)-4,7-dioxo-8-phenethylhexahydropyrazino [2,1-c][1,2,4]oxadiazine-1(6H)-carboxylate] | 52.1% |
| CC(C)CCNC(=O)[C@H](CC(C)C)N1CC2N(C(=O)OCCc3ccc(O)cc3)O[C@H](Cc3ccccc3)C(=O)N2[C@@H](C)C1=O (stereo partly drawn) [Compound I-120, 4-hydroxyphenethyl (3R,6S)-3-benzyl-8-((S)-1-(isopentylamino)-4-methyl-1-oxopentan-2-yl)-6-methyl-4,7-dioxohexahydropyrazino [2,1-c][1,2,4]oxadiazine-1(6H)-carboxylate] | 67.1% |
| CCCCCOC(=O)N1O[C@H](CC(C)C)C(=O)N2C1CN([C@@H](Cc1ccc(O)cc1)C(=O)NCCC(C)C)C(=O)[C@@H]2Cc1ccc(O)cc1 (stereo partly drawn) [Compound I-96, pentyl (3R,6S)-6-(4-hydroxybenzyl)-8-((S)-3-(4-hydroxyphenyl)-1-(isopentylamino)-1-oxopropan-2-yl)-3-isobutyl-4,7-dioxohexahydropyrazino[2,1-c][1,2,4]oxadiazine-1(6H)-carboxylate] | 56.3% |
| CC(C)CCOC(=O)N1O[C@H](Cc2ccccc2)C(=O)N2C1CN([C@@H](Cc1ccccc1)C(=O)NCCCO)C(=O)[C@@H]2Cc1ccc(O)cc1 (stereo partly drawn) [Compound I-106, isopentyl (3R,6S)-3-benzyl-6-(4-hydroxybenzyl)-8-((S)-1-((3-hydroxypropyl)amino)-1-oxo-3-phenylpropan-2-yl)-4,7-dioxohexahydropyrazino[2,1-c][1,2,4]oxadiazine-1(6H)-carboxylate] | 52% |
| CC(C)C[C@H]1ON(CCCC2CCN(S(C)(=O)=O)CC2)C2CN(C3CCN(C)CC3)C(=O)[C@H](CC(C)C)N2C1=O (stereo partly drawn) [Compound I-151, (3R,6S)-3,6-diisobutyl-8-(1-methylpiperidin-4-yl)-1-(3-(1-(methylsulfonyl)piperidin-4-yl)propyl) tetrahydropyrazino [2,1-c][1,2,4]oxadiazine-4,7(3H,6H)-dione] | 88% |
| CC(C)C[C@H]1ON(CCCC2CCN(S(=O)(=O)c3cccnc3)CC2)C2CN(C3CCN(C)CC3)C(=O)[C@H](CC(C)C)N2C1=O (stereo partly drawn) [Compound I-150, (3R,6S)-3,6-diisobutyl-8-(1-methylpiperidin-4-yl)-1-(3-(1-(pyridin-3-ylsulfonyl)piperidin-4-yl)propyl)tetrahydropyrazino [2,1-c][1,2,4]oxadiazine-4,7(3H,6H)-dione] | 69.1% |
| C[C@H]1ON(C(=O)OCCc2ccc(O)cc2)C2CN([C@@H](Cc3ccccc3)C(=O)NCCC(N)=O)C(=O)[C@H](Cc3ccccc3)N2C1=O (stereo partly drawn) [Compound I-86, 4-hydroxyphenethyl (3R,6S)-8-((S)-1-((3-amino-3-oxopropyl)amino)-1-oxo-3-phenylpropan-2-yl)-6-benzyl-3-methyl-4,7-dioxohexahydro-pyrazino[2,1-c] [1,2,4]oxadiazine-1(6H)-carboxylate] | 70.9% |
| CC(C)CCOC(=O)N1O[C@H](C)C(=O)N2C1CN([C@@H](Cc1ccccc1)C(=O)NCCC(N)=O)C(=O)[C@@H]2Cc1ccccc1 (stereo partly drawn) [Compound I-84, isopentyl (3R,6S)-8-((S)-1-((3-amino-3-oxopropyl)amino)-1-oxo-3-phenylpropan-2-yl)-6-benzyl-3-methyl-4,7-dioxohexahydro-pyrazino[2,1-c] [1,2,4]oxadiazine-1(6H)-carboxylate] | 78.4% |
| CCCC[C@@H](C(=O)NCCC(C)C)N1CC2N(C(=O)OCCc3ccc(O)cc3)O[C@H](Cc3ccccc3)C(=O)N2[C@@H](Cc2ccc(O)cc2)C1=O (stereo partly drawn) [Compound I-109, 4-hydroxyphenethyl (3R,6S)-3-benzyl-6-(4-hydroxybenzyl)-8-((S)-1-(isopentylamino)-1-oxohexan-2-yl)-4,7-dioxohexahydropyrazino[2,1-c][1,2,4]oxadiazine-1(6H)-carboxylate] | 74% |
| CC[C@H](C)CN1CC2N(C(=O)OCC(C)C)O[C@H](CC3CCCCC3)C(=O)N2[C@@H](CCCCN)C1=O (stereo partly drawn) [Compound I-40, (3R,6S)-isobutyl 6-(4-aminobutyl)-3-(cyclohexylmethyl)-8-((S)-2-methylbutyl)-4,7-dioxohexahydropyrazino[2,1-c][1,2,4]oxadiazine-1(6H)-carboxylate] | 124% |
| CC(C)[C@H]1C(=O)N(CCc2cccc3ccccc23)CC2N(C(=O)OCc3ccccc3)O[C@H](Cc3ccc(O)cc3)C(=O)N21 (stereo partly drawn) [Compound I-44, (3R,6S)-benzyl 3-(4-hydroxybenzyl)-6-isopropyl-8-(2-(naphthalen-1-yl)ethyl)-4,7-dioxohexahydropyrazino[2,1-c][1,2,4]oxadiazine-1(6H)-carboxylate] | 63.1% |
